We go through 5 compounds from article PMC12189671, “Antioxidant Activity and Cytotoxicity Evaluation of New Catechol Hydrazinyl-Thiazole Derivatives as Potential Protectors in Retinal Degenerative Processes” (Antioxidants, 2025).

The nature of assay [1]: Indirect 1O2 scavenging assay (ICG photo-generator, DPBF probe). As to the method:
The ^1O2 scavenging assay was employed using a previously established indirect protocol from our research group. In brief, indocyanine green (ICG), from Sigma–Aldrich (St. Louis, MO, USA), was utilized to induce ^1O2 production in the presence of 5a and 5b. Ascorbic acid was used as a reference antioxidant agent, and a blank sample without ^1O2 scavengers was prepared. The reaction mixtures were exposed to a Micro Raman System R-3000 (Photonitech, Singapore, Singapore) laser diode,(λ = 785 nm, 190 mW power) for a total time of 100 s. To evaluate the ^1O2 scavenging activity of the compounds 5a,b, the degradation of 1,3-diphenylisobenzofuran (DPBF), obtained from Alfa Aesar (Haverhill, MA, USA), was measured using a V-730 spectrophotometer (Jasco International Co., Ltd., Tokyo, Japan). To determine the ^1O2 quantum yields (Φ(^1O2)) of ICG in the presence of the studied molecules, the following equation was used: Φ(^1O2) = Φ(^1O2) ^ICG × ((S × F^ICG)/(S^ICG × F)), where S represents the slope of the absorbance difference of DPBF over time, F is the absorption correction factor (F = 1 − 10^−OD), and OD is the optical density at the excitation wavelength, λ = 785 nm. The Φ(^1O2) equal to 15.0% of free ICG was used as a reference. The concentrations utilized in the experiment were 0.1 mM for DPBF and 10^−5 M for ICG and the ^1O2 scavengers. Free DPBF was used as a control.
The efficacy of compounds 5a,b against ^1O2 was assessed using an indirect approach. ICG was used as a photo-induced ^1O2 generator alongside DPBF, serving as an indirect chemical probe capable of characterizing ^1O2 release in solution. This setup allowed us to evaluate the ^1O2 scavenging capacity of the tested molecules and compare their activity to a reference compound, specifically ascorbic acid. The samples were exposed to 785 nm laser radiation, and at 10-s intervals after irradiation, their UV-Vis absorption spectra were measured and analyzed (Figure 9). Subsequently, we determined the ^1O2 quantum yields (Φ(^1O2)) of ICG in the presence of 5a,b and ascorbic acid, using the Φ(^1O2) of free ICG of 15.0% as reference.

Assay [2] in a line: DPPH radical scavenging assay. The note with it: 30 min incubation, λ = 517 nm. As to the method:
The DPPH^• radical scavenging assay is based on transferring a hydrogen atom from the tested compounds to the violet stable free radical DPPH^• (2,2-diphenyl-1-picrylhydrazyl radical), converting it into a yellow compound. The assay was conducted using tested compounds and references in concentrations ranging from 2 to 50 µM, according to our adaptation of the protocol of Brand-Williams et al.. The absorbance of the samples is given by the remaining unreacted reagent radical, and it is inversely proportional to the amount of DPPH^• neutralized. The absorbance of the samples was measured at λ = 517 nm after 30 min of incubation in the dark at room temperature. The DPPH^• radical scavenging activity of the compounds was calculated using Equation (1):(1) DPPH^• scavenging (%)=control absorbance−sample absorbance/control absorbance×100
Background: DPPH is a stable violet radical that fades when it is reduced.

Details of assay [3]: method as in PMID 30881661. The following applies: free ICG, used as reference; cited from earlier work.
Assay [4] can be described thus: Ferrous ions chelation assay (ferrozine). As to the method: Solutions of the tested compounds or ethylenediaminetetraacetic acid disodium salt (EDTA-Na2), used as a positive control, were thoroughly mixed with 0.5 mL of FeSO4 (0.125 mM) and 0.5 mL of ferrozine (0.315 mM). After a 10-min incubation in the dark at room temperature, the absorbance was measured at λ = 562 nm.

Another assay concerns OR51E2. The arrangement: method as in PMID 29249973. The note with it: RPE cells; cited from earlier work.
Assay [5] concerns rat microsomal membrane lipid peroxidation. Kind of assay: Lipid peroxidation inhibition assay (LPI), 2-thiobarbituric acid method. Type of assay: biochemical. The note with it: ascorbic acid/Fe^2+ system, 37 °C, 45 min. As to the method:
Rat liver microsomes were homogenized in saline, and the resulting homogenates were centrifuged at 9000× g for 20 min at 4 °C to remove cell debris. The supernatant underwent ultracentrifugation at 110,000× g for 40 min at 4 °C. The pelleted microsomal fraction was subsequently washed with saline via another round of ultracentrifugation under identical conditions. Thereafter, the pellet was resuspended in Tris-HCl buffer (pH 7.4) to achieve a concentration equivalent to 0.5 g liver per mL and was stored until further analysis (at −80 °C). For the assay, the microsomal preparation was thermally inactivated by incubation at 90 °C for 90 s, then homogenized again and diluted to a final concentration equivalent to 4 mM fatty acid equivalents. […] All mixtures were incubated at 37 °C under air with continuous shaking. […] This was followed by heating at 90 °C for 20 min and centrifugation at 3000 rpm for 15 min. As a result of the breakdown of unsaturated fatty acids, malondialdehyde reacts with the 2-thiobarbituric acid to produce a pink compound due to the formation of a Schiff base. The extent of lipid peroxidation was measured spectrophotometrically at 535/600 nm, which is proportional to the amount of the chromogen reaction product formed between 2-thiobarbituric acid and malondialdehyde. The determinations were performed in triplicate, and the standard deviation was within ±10% of the mean value.

Assay [6] in a line: ABTS radical cation decolorization assay. The note with it: 10 min incubation, pH 7.4, λ = 734 nm. The procedure: The ABTS^•+ (2,2′-azinobis-(3-ethylbenzothiazoline-6-sulfonic acid) decolorization assay, based on the method of Re et al., was performed in the concentration range of 1 to 25 µM according to protocols previously reported by our group. The reagent was prepared in a 0.1 M potassium phosphate buffer (pH 7.4) and activated overnight with MnO2 [89]. Prior to use, the stability of the ABTS^•+ reagent was verified by checking its absorbance at λ = 734 nm over one hour, ensuring a consistent absorption of around 0.7. The mixtures were incubated for 10 min in the dark at room temperature. The absorbance of the samples is given by the remaining unreacted reagent radical, and it is inversely proportional to the amount of ABTS^•+ neutralized. The ABTS^•+ scavenging activity of compounds was calculated using Equation (2).(2) ABTS^•^+ scavenging (%)=control absorbance−sample absorbance/control absorbance×100

For `O=C1O[C@H]([C@@H](O)CO)C(O)=C1O` [Ascorbic acid, ascorbic acid, reference compound], the “^1O2 quantum yield Φ(^1O2) of ICG in the presence of the scavenger” value in assay [1] (10^−5 M ICG and scavenger, 785 nm laser, 100 s) worked out at 9.4%. For the same compound, the “reduction of ^1O2 quantum yield of ICG compared to ICG alone” value in assay [1] (addition of scavenger to ICG) amounted to 5.6%. Half-maximal inhibition in assay [2] (IC50) required 50.2 µM.

`CC1(C)C(/C=C/C=C/C=C/C=C2\N(CCCCS(=O)(=O)O)c3ccc4ccccc4c3C2(C)C)=[N+](CCCCS(=O)(=O)[O-])c2ccc3ccccc3c21` [ICG, indocyanine green]: the “^1O2 quantum yield Φ(^1O2) of ICG alone” value in assay [3] is 15%.

`O=C([O-])CN(CCN(CC(=O)O)CC(=O)O)CC(=O)[O-].[Na+].[Na+]` [EDTA-Na2, ethylenediaminetetraacetic acid disodium salt, reference compound]: the “% of ferrous ions chelation” value amounted to 11.71% in assay [4] (50 nM); 20.00% in assay [4] (100 nM); 36.37% in assay [4] (150 nM); 61.98% in assay [4] (175 nM); 86.53% in assay [4] (200 nM).

As to `CC(=O)/C=C/C1=C(C)CCCC1(C)C` [β-ionone], the “threshold concentration to trigger a cellular response” value with OR51E2 is “under 10 µM”.

As to `Cc1c(C)c2c(c(C)c1O)CCC(C)(C(=O)O)O2` (stereo not shown) [Trolox, reference compound], the IC50 (usually the concentration needed to halve the response being measured) stood at 25 µM in assay [5], 35.8 µM in assay [2] and 15.9 µM in assay [6].
